Assay results reported in BindingDB's records for doi:10.1016/s0960-894x(01)00005-1 (Graduate School of Bioscience and Biotechnology, 2001).

Assays:
[1] = Dissociation constant for TAR RNA
[2] = Inhibitory activity against peptide binding to the RRE RNA was determined

Kd [1] [nM]	Structure (SMILES)	IC50 [2] [nM]
290	NC1CC(N)C(OC2OC(CNC(=O)c3ccc4ccc5cccc6ccc3c4c56)C(O)C(O)C2N)C(O)C1O [Pyrene-1-carboxylic acid [(4R,5S,6S)-5-amino-6-((2R,3R,4R)-4,6-diamino-2,3-dihydroxy-cyclohexyloxy)-3,4-dihydroxy-tetrahydro-pyran-2-ylmethyl]-amide]	–
–	N=C(N)NCCCC(N)C(=O)NCC1OC(OC2C(N)CC(N)C(O)C2O)C(N)C(O)C1O [2-Amino-5-guanidino-pentanoic acid [(4R,5S,6S)-5-amino-6-((2R,3R,4R)-4,6-diamino-2,3-dihydroxy-cyclohexyloxy)-3,4-dihydroxy-tetrahydro-pyran-2-ylmethyl]-amide]	460
30	N=C(N)NCCCC(NC(=O)c1ccc2ccc3cccc4ccc1c2c34)C(=O)NCC1OC(OC2C(N)CC(N)C(O)C2O)C(N)C(O)C1O (stereo not drawn) [Neamine derivative]	–
